From patent publication US20130209386A1, “NEW USES” (EVOCUTIS PLC, priority 2010, published 2013) come the findings set out here.

In brackets after ≈: the same amount, converted by molar mass. Several values for one entry are separate records, joined by “and”; a condition that tells them apart may be missing. Equal values may be shown once. Read-outs that look alike come from different tables or passages of the source. Marks after values point to notes of the source that are not given here.

Assay [1] relates to Propionibacterium acnes NCTC 737. Briefly: Minimum biocidal concentration (MBC) assay. It is filed as cell-based. As for the experimental part: (§1) The first test organism used was Propionibacterium acnes NCTC 737. This is a propionibacterial strain and is the type strain of the genus; it is fully susceptible to antibiotics. The propionibacteria are clinically significant due to their involvement in acne. They are also opportunistic pathogens in compromised hosts. Activity observed against these micro-organisms is expected to be a good predictor of activity against acne.
(§2) The propionibacteria were cultured and maintained on Wilkins-Chalgren Anaerobe Medium (agar and broth) at pH 6.0; all cultures were incubated anaerobically at 37° C. for 72 hours.
(b) Minimum Biocidal Concentration (MBC) Assay
This assay, normally carried out after an MIC assay, determines the minimum concentration of a compound that is lethal to the micro-organism being tested.
(§3) These samples were then individually sub-cultured on antibiotic-free agar medium, under the incubation conditions described above. Following incubation they were examined visually for microbial growth.

For assay [2] the test system is unchanged. Briefly: Minimum inhibitory concentration (MIC) assay. It is filed as cell-based. As for the experimental part:
as §1, §2
(a) Minimum Inhibitory Concentration (MIC) Assay
This is a standard international method for quantitatively assessing the antimicrobial activity of a compound in a liquid medium. The method used a sterile 96-well microtitre plate, capable of holding about 200 μl of liquid per well. The wells contained liquid culture medium and ranges of decreasing concentrations of the relevant test compound in doubling dilutions (eg 1000, 500, 250, 125 . . . μg/ml, etc, down to 0.49 μg/ml). The culture media were as described above.
The wells were inoculated with a liquid suspension of freshly grown micro-organism and incubated under the conditions described above. After incubation, the microtitre plate was examined visually (with the aid of a light box) for cloudiness in each well, which would indicate microbial growth. The MIC value was recorded as the lowest concentration of test compound required to inhibit microbial growth, ie the lowest concentration for which the liquid in the well remained clear.
The assays included both negative (culture medium with no micro-organisms) and positive (culture medium plus diluting solvent plus micro-organism) controls.

The test system is the same in assay [3]. Description: Disc diffusion assay (DDA) and synergy disc diffusion assay (SDDA). It is filed as cell-based. On the procedure:
(c) Disc Diffusion Assay (DDA)
This is an internationally recognised standard method for qualitatively assessing the antimicrobial activity of a compound or combination of compounds.
A sterile paper disc was impregnated with a sample of the test compound(s) in a suitable solvent (or applied neat) and 30 minutes allowed for any of the solvents to evaporate (where possible). The disc was then placed on an agar plate onto which the test micro-organism had been inoculated. The plate was then incubated under the conditions described above, following which it was examined visually for signs of microbial growth. […] The diameter of this zone of “inhibition” was measured using a ProtoCOL™ automated zone sizer (Synbiosis, Cambridge, UK).
(d) Synergy Disc Diffusion Assay (SDDA)
This is a variation on the DDA method, in which two compounds are tested together for their combined antimicrobial activity.
Two test compounds A and B were placed on a single paper disc and the above described DDA procedure repeated.
The two compounds were then subjected in combination to the SDDA assay described above.
MIC/MBC experiments were performed in duplicate and (S)DDA experiments in triplicate.
The tropolone was dissolved in ethanol.
(In general: A growth-free zone around the sample is the usual read-out of agar diffusion tests.)

Another assay deals with C. striatum NCTC 764. Description: Fixed ratio combination MIC/MBC assays. It is filed as cell-based, Corynebacterium striatum. As for the experimental part: The second test organism used was Corynebacterium striatum NCTC 764. This is a Gram-positive bacterium which is closely related to organisms (aerobic diphtheroids of the genus Corynebacterium) that cause body odour (Guillet et al, Eur J Dermatol, 2000 Jan-Feb, 10(1): 41-2). The C. striatum was cultured and maintained on Mueller-Hinton Medium (agar and broth) at pH 7.3 (±0.1); cultures were incubated aerobically at 37° C. for 18-24 hours.
(§4) (g) Fixed Ratio Combination MIC/MBC Assays
(§5) This method used a sterile 96-well microtitre plate, capable of holding about 200 μl of liquid per well. The wells contained liquid culture medium and ranges of decreasing concentrations of the relevant test compounds alone in doubling dilutions (eg 1000, 500, 250, 125 . . . μg/ml, etc. down to 0.49 μg/ml) or doubling dilutions of a combination of two compounds mixed initially at a fixed concentration ratio (based on molarity in this instance). The culture medium was as described above.
(§6) The wells were inoculated with a liquid suspension of freshly grown micro-organism and incubated under the conditions described above. After incubation, the microtitre plate was examined visually (with the aid of a light box) for cloudiness in each well, which would indicate microbial growth. The MIC value was recorded as the lowest concentration of test compounds alone or concentrations of the mixture of the two test compounds required to inhibit microbial growth, ie the liquid in the well remained clear.
(§7) The assays were conducted in triplicate and included both negative (culture medium with no micro-organisms) and positive (culture medium plus diluting solvent(s) plus micro-organism) controls.
as §3
(§8) Thus for each mixture tested, the FIC for compound A (FICA)=MIC for (A+B)/MIC for A alone. Similarly the FIC for compound B (FICB)=MIC for (A+B)/MIC for B alone. The overall FICI=FICA+FICB.
(§9) FBC & FBCI were calculated in the same manner using recorded MBC values.

Assay [4] relates to P. acnes NCTC 737. Briefly: Fixed ratio combination MIC/MBC assays. It is filed as cell-based, Propionibacterium acnes. As for the experimental part: as §4, §5, §6, §7, §3, §8, §9
In assay [5] the test system is P. acnes NCTC 737. Description: Synthetic sebum time-to-kill assay. It is filed as cell-based, Propionibacterium acnes. The settings on record: copper sulphate 97.5 mg/L, tropolone 195 mg/L; for Log10 change: T0 to T4 hours; for Log10 cfu/ml (T4 hours): after 4 hours, lowest detectable level 3.0; for Log10 cfu/ml (T0 hours): start count. As for the experimental part: (f) Synthetic Sebum Time-to-Kill Assay This quantitative assay was designed to assess the level of kill of a P. acnes culture in a synthetic sebum (non-aqueous environment) over a defined time period (in this case 4 hours). A culture of P. acnes NCTC 737 was inoculated into a synthetic sebum (a liquid mixture of lipid components designed to simulate human sebum) containing the relevant test compound dissolved in 1-octanol. […] The plates were then incubated as described above and subsequently examined visually for growth. The numbers of viable microbial colonies on the plates were counted with the aid of a colony counter and converted to colony-forming units per ml (cfu/ml) using the appropriate dilution factor. Cell counts conducted in the absence of test compound acted as positive controls. Mixtures of tropolone and copper (II) sulphate, containing various relative proportions of the two actives, were subjected to synthetic sebum time-to-kill assays against P. acnes NCTC 737, as described above. All assays were conducted in triplicate.

Where [6] appears, read: P. acnes NCTC 737, compound alone.
The mark [7] stands for this setting: C. striatum NCTC 764, compound alone.
Where [8] appears, read: compound alone, 12.5 μg per disc (gluconate, picolinate 25 μg; silicate 12.4 μg; chlorophyllin 200 μg).
[9] abbreviates: copper salt + tropolone versus the greater single zone.
Setting [10] is: copper salt combined with tropolone on one disc, 12.5 μg each (exceptions b187).

`CC(=O)[O-].[Cu+]` [Copper (I) acetate]: in assay [1], the MBC was 31.25 µg/mL and the MIC/MBC ratio was determined as 0.25. The compound also gave an MIC in assay [2] of 7.8 µg/mL. Moreover, in assay [3], the “(S)DDA with tropolone” value is 32.35 mm, the “DDA zone of inhibition diameter” value is 32.14 mm, the SDDA area increase stood at 1.29% and the SDDA increase was found to be 0.21 mm. Further, in the assay on C. striatum NCTC 764, the MBC is given as >62.8** μg/ml and the minimal inhibitory concentration (MIC) is given as >62.8** μg/ml. For the same compound, in the assay with P. acnes NCTC 737 [4] (compound alone), the MBC came out at 23.3 µg/mL and the MIC is 23.3 µg/mL.

In the case of `O=c1cccccc1O` [Tropolone, 2-hydroxy-2,4,6-cycloheptatrien-1-one], the MBC was 250 µg/mL (≈ 2050 µM) in assay [1] (Cutibacterium acnes, NCTC737, P. acnes NCTC 737, compound alone, read-out: MBC); 62.5 µg/mL in the assay with C. striatum NCTC 764 (setting [7]); above 62.5 µg/mL with C. striatum NCTC 764 (Corynebacterium striatum, NCTC764, C. striatum NCTC 764, compound alone, read-out: MBC); above 62.5 µg/mL in the assay with P. acnes NCTC 737 [4] (Cutibacterium acnes, NCTC737, compound alone, read-out: MBC). Further, in assay [1] (setting [6]), the MIC/MBC ratio was found to be 0.06. The compound further displayed a Log10 change in the assay on P. acnes NCTC 737 [5] of −0.31 Log10. The “Log10 cfu/ml (T4 hours)” value in the assay with P. acnes NCTC 737 [5] worked out at 7.8 Log10 cfu/ml. Also, the “Log10 cfu/ml (T0 hours)” value with P. acnes NCTC 737 [5] was determined as 8.11 Log10 cfu/ml. Besides, the minimal inhibitory concentration (MIC) was found to be 15.6 µg/mL (≈ 128 µM) in assay [2] (Cutibacterium acnes, NCTC737, P. acnes NCTC 737, compound alone, read-out: MIC); 31.2 µg/mL in the assay on P. acnes NCTC 737 [4] (Cutibacterium acnes, NCTC737, compound alone, read-out: MIC); 62.5 µg/mL in the assay with P. acnes NCTC 737 [4] (compound alone). Besides, in assay [3] (Cutibacterium acnes, NCTC737, 200 μg tropolone and/or 12.5 μg copper sulphate per disc, read-out: (S)DDA zone of inhibition diameter), the zone of inhibition at 200 µg/disc turned out to be 19.1 mm. Further, the zone of inhibition at 12.5 µg/disc in assay [3] (Cutibacterium acnes, NCTC737, compound alone, 12.5 μg per disc (gluconate, picolinate 25 μg; silicate 12.4 μg; chlorophyllin 200 μg), read-out: DDA zone of inhibition diameter) stood at 13.2 mm.

As for `CC(=O)[O-].CC(=O)[O-].[Cu+2]` [Copper (II) acetate], in assay [1], the MBC is 125 µg/mL and the MIC/MBC ratio is on record as 0.03. Moreover, in assay [2], the MIC worked out at 3.9 µg/mL. Moreover, in assay [3], the “(S)DDA with tropolone” value worked out at 30.80 mm, the “DDA zone of inhibition diameter” value is reported as 25.63 mm, the SDDA area increase is 44.39% and the SDDA increase turned out to be 5.17 mm. Besides, in the assay on C. striatum NCTC 764, the MBC is >46.5** μg/ml and the MIC is >46.5** μg/ml. Further, in the assay with P. acnes NCTC 737 [4] (compound alone), the MBC is 46 µg/mL and 34.6 µg/mL.

In the case of `O.O.O.O.O.O=S(=O)([O-])[O-].[Cu+2]` [Copper sulphate, copper (II) sulphate pentahydrate], in assay [1], the MBC is 125 µg/mL and the MIC/MBC ratio was found to be 0.125. In the assay on P. acnes NCTC 737 [5], the Log10 change was −1.53 Log10, the “Log10 cfu/ml (T4 hours)” value is 6.58 Log10 cfu/ml and the “Log10 cfu/ml (T0 hours)” value was 8.11 Log10 cfu/ml. Also, the MIC in assay [2] was 15.6 µg/mL. Also, in assay [3], the “(S)DDA zone of inhibition diameter” value is on record as 17.3 (±2.59) mm. In the assay on C. striatum NCTC 764, the MBC was >40.9** μg/ml and the MIC is listed as >40.9** μg/ml. In addition, in the assay on P. acnes NCTC 737 [4] (compound alone), the MBC was >40.9** μg/ml and 60.8 μg/ml; the MIC is 20.4 µg/mL and 30.4 µg/mL.

As to `CC(=O)c1c([O-])c(C)c([O-])c2c1OC1=CC(=O)C(C(C)=O)C(=O)C12C.[Cu+2]` (stereo not drawn) [Copper (II) usnate], in assay [1] (setting [6]), the MBC came to 1.95 µg/mL and the MIC/MBC ratio came out at 0.125. The MIC in assay [2] (setting [6]) came to 0.25 µg/mL. Also, the “DDA zone of inhibition diameter” value in assay [3] (setting [8]) was determined as 38.35 mm. Also, in assay [3] (setting [9]), the SDDA area increase came out at 22.13% and the SDDA increase turned out to be 4.03 mm. Besides, in assay [3] (setting [10]), the “(S)DDA with tropolone” value worked out at 42.38 mm. In addition, in the assay with C. striatum NCTC 764 (setting [7]), the MBC turned out to be 6 µg/mL and the MIC amounted to 3 µg/mL.

Turning to `[Cu+].[I-]` [Copper (I) iodide], in assay [1] (setting [6]), the MBC is 31.25 µg/mL and the MIC/MBC ratio is reported as 0.25. This compound also registered an MIC in assay [2] (setting [6]) of 7.8 µg/mL. Also, the “DDA zone of inhibition diameter” value in assay [3] (setting [8]) amounted to 29.66 mm. For the same compound, in assay [3] (setting [9]), the SDDA area increase is listed as 24.28% and the SDDA increase was 3.41 mm. In addition, the “(S)DDA with tropolone” value in assay [3] (setting [10]) was determined as 33.07 mm. Further, in the assay with C. striatum NCTC 764 (setting [7]), the MBC was >97.5** μg/ml and the MIC was >97.5** μg/ml.

For the compound `[Cl][Cu][Cl]` [Copper (II) chloride], in assay [1] (setting [6]), the MBC came out at 31.25 µg/mL and the MIC/MBC ratio is listed as 0.06. The same compound gave an MIC in assay [2] (setting [6]) of 1.95 µg/mL. The “DDA zone of inhibition diameter” value in assay [3] (setting [8]) worked out at 32.14 mm. Besides, in assay [3] (setting [9]), the SDDA area increase turned out to be 1.94% and the SDDA increase stood at 0.31 mm. Moreover, the “(S)DDA with tropolone” value in assay [3] (setting [10]) turned out to be 32.45 mm. Moreover, in the assay on C. striatum NCTC 764 (setting [7]), the minimal bactericidal concentration (MBC) was >34.4** μg/ml and the MIC is recorded as >34.4** μg/ml.

The MBC is the smallest concentration meeting the test's criterion for killing. By MIC is commonly meant the lowest concentration that inhibits growth of the organism. Usually zone of inhibition stands for the extent of the growth-free halo in a diffusion test.
